From patent publication US12018021B2 (UCB Biopharma SRL, priority 2018, dated 2024)
pIC50: −log10 of the molar value.

Target: IgE-Tb / sFcεRIα-Y131A-AF488 (Homo sapiens, UniProt P01854, N146Q/N252Q)
Assay: IgE-Tb / sFcεRIα-Y131A-AF488 FRET assay (protocol for examples 234 to 501)
Assay type: binding
Conditions: examples 234 to 501: compound with IgE-Tb 30 minutes before sFcεRIα-Y131A-AF488, incubated 18 hours at room temperature; read-out: Y131A FRET IC50 range
Method in brief: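 Read-out is the 520/490 nm emission ratio (337 nm excitation) after 18 h at room temperature, background subtracted, fitted four-parameter for IC50. Final reagents: 5 nM IgE-Tb, preincubated 30 min with compound (top typically 10 μM, 2% DMSO, 3-fold 10-point), plus 25 nM sFcεRIα-Y131A-AF488.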

Chain of IgE-Tb / sFcεRIα-Y131A-AF488 (P01854 whole entry N146Q/N252Q): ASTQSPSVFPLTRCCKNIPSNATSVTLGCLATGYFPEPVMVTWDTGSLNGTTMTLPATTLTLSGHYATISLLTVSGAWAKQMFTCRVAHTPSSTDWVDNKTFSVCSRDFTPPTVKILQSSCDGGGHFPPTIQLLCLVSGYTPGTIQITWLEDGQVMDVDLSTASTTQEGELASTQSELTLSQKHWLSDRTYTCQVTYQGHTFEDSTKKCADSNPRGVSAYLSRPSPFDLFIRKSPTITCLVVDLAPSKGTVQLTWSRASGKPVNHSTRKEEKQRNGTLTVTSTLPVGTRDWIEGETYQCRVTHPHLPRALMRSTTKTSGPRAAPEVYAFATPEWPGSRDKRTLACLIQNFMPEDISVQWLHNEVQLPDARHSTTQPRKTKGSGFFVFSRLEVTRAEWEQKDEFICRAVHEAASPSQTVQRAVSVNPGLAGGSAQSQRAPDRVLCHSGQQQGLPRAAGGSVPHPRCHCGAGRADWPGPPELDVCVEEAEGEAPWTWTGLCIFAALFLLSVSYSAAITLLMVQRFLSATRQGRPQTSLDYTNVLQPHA

Structure (SMILES) | pIC50
Cn1nc(C(F)F)cc1Nc1nncn1[C@H]1CCc2sc(NC(=O)[C@H]3CC34CC4)c(C(=O)NC3CC(F)(F)C3)c2C1 [Example 406, (5S)—N-(3,3-Difluorocyclobutyl)-5-[3-[[5-(difluoromethyl)-2-methylpyrazol-3-yl]amino]-1,2,4-triazol-4-yl]-2-[[(2S)-spiro[2.2]pentane-2-carbonyl]amino]-4,5,6,7-tetrahydro-1-benzothiophene-3-carboxamide] | > 6.00
Cn1nc(C(F)F)cc1Nc1nncn1[C@H]1CCc2sc(NC(=O)[C@H]3CC34CC4)c(C(=O)NCC3CC(F)(F)C3)c2C1 [Example 407, (5S)—N-[(3,3-Difluorocyclobutyl)methyl]-5-[3-[[5-(difluoromethyl)-2-methylpyrazol-3-yl]amino]-1,2,4-triazol-4-yl]-2-[[(2S)-spiro[2,2]pentane-2-carbonyl]amino]-4,5,6,7-tetrahydro-1-benzothiophene-3-carboxamide] | > 6.00
Cn1nc(C(F)F)cc1Nc1nncn1[C@H]1CCc2sc(NC(=O)[C@H]3CC34CC4)c(C(=O)NC[C@H]3C[C@H]3F)c2C1 [Example 412, (5S)-5-[3-[[5-(Difluoromethyl)-2-methylpyrazol-3-yl]amino]-1,2,4-triazol-4-yl]-N-[[(1R,2R)-2-fluorocyclopropyl]methyl]-2-[[(2S)-spiro[2.2]pentane-2-carbonyl]amino]-4,5,6,7-tetrahydro-1-benzothiophene-3-carboxamide] | > 6.00
Cn1nc(C(F)F)cc1Nc1nncn1[C@H]1CCc2sc(NC(=O)[C@H]3CC34CC4)c(C(=O)NC[C@H]3C[C@@H]3F)c2C1 [Example 413, (5S)-5-[3-[[5-(Difluoromethyl)-2-methylpyrazol-3-yl]amino]-1,2,4-triazo-4-yl]-N-[[(1R,2S)-2-fluorocyclopropyl]methyl]-2-[[(25)-spiro[2.2]pentane-2-carbonyl]amino]-4,5,6,7-tetrahydro-1-benzothiophene-3-carboxamide] | > 6.00
Cn1nc(C(F)F)cc1Nc1nncn1[C@H]1CCc2sc(NC(=O)[C@H]3CC34CC4)c(C(=O)N[C@H]3CC34CC4)c2C1 [Example 414, (5S)-5-[3-[[5-(difluoromethyl)-2-methyl-pyrazol-3-yl]amino]-1,2,4-triazol-4-yl]-2-[[(2S)-spiro[2.2]pentane-2-carbonyl]amino]-N-[(25)-spiro[2.2]pentan-2-yl]-4,5,6,7-tetrahydrobenzothiophene-3-carboxamide] | > 6.00
Cn1nc(C(F)F)cc1Nc1nncn1[C@H]1CCc2sc(NC(=O)[C@H]3CC34CC4)c(C(=O)N[C@@H]3CC34CC4)c2C1 [Example 415, (5S)-5-[3-[[5-(difluoromethyl)-2-methyl-pyrazol-3-yl]amino]-1,2,4-triazol-4-yl]-2-[[(2S)-spiro[2.2]pentane-2-carbonyl]amino]-N-[(2R)-spiro[2.2]pentan-2-yl]-4,5,6,7-tetrahydrobenzothiophene-3-carboxamide] | > 6.00
Cn1nc(C(F)F)cc1Nc1nncn1[C@H]1CCc2sc(NC(=O)[C@H]3CC34CC4)c(C(=O)NCC3CC3)c2C1 [Example 416, (5S)—N-(Cyclopropylmethyl)-5-[3-[[5-(difluoromethyl)-2-methyl-pyrazol-3-yl]amino]-1,2,4-triazol-4-yl]-2-[[(2S)-spiro[2.2]pentane-2-carbonyl]amino]-4,5,6,7-tetrahydrobenzothiophene-3-carboxamide] | > 6.00
Cn1nc(C#N)cc1Nc1nncn1[C@H]1CCc2sc(NC(=O)C3CC3)c(C(=O)NCC3CC3)c2C1 [Example 418, (5S)-5-[3-[(5-Cyano-2-methyl-pyrazol-3-yl)amino]-1,2,4-triazol-4-yl]-2-(cyclopropanecarbonylamino)-N-(cyclopropylmethyl)-4,5,6,7-tetrahydrobenzothiophene-3-carboxamide] | > 6.00
O=C(NCC1CC1)c1c(NC(=O)C2CC2)sc2c1C[C@@H](n1cnnc1Nc1ccc3c(c1)OC(F)(F)O3)CC2 [Example 419, (5S)-2-(Cyclopropanecarbonylamino)-N-(cyclopropylmethyl)-5-[3-[(2,2-difluoro-1,3-benzodioxol-5-yl)amino]-1,2,4-triazol-4-yl]-4,5,6,7-tetrahydrobenzothiophene-3-carboxamide] | > 6.00
Cn1nc(C(F)F)cc1Nc1nncn1[C@H]1CCc2sc(NC(=O)[C@H]3CC34CC4)c(C(=O)NC[C@@H]3C[C@@H]3F)c2C1 [Example 420, (5S)-5-[3-[[5-(Difluoromethyl)-2-methyl-pyrazol-3-yl]amino]-1,2,4-triazol-4-yl]-N-[[(1S,2S)-2-fluorocyclopropyl]methyl]-2-[[(2S)-spiro[2.2]pentane-2-carbonyl]amino]-4,5,6,7-tetrahydrobenzothiophene-3-carboxamide] | > 6.00
O=C(NCC1CC1)c1c(NC(=O)C2CC2)sc2c1C[C@@H](n1cnnc1Nc1ccc(C(F)F)nc1)CC2 [Example 423, (5S)-2-(cyclopropanecarbonylamino)-N-(cyclopropylmethyl)-5-[3-[[6-(difluoromethyl)-3-pyridyl]amino]-1,2,4-triazol-4-yl]-4,5,6,7-tetrahydrobenzothiophene-3-carboxamide] | > 6.00
Cc1nc(F)ccc1Nc1nncn1[C@H]1CCc2sc(NC(=O)C3CC3)c(C(=O)NCC3CC3)c2C1 [Example 424, (5S)-2-(cyclopropanecarbonylamino)-N-(cyclopropylmethyl)-5-[3-[(6-fluoro-2-methyl-3-pyridyl)amino]-1,2,4-triazol-4-yl]-4,5,6,7-tetrahydrobenzothiophene-3-carboxamide] | > 6.00
Cn1nc(OC2CC2)cc1Nc1nncn1[C@H]1CCc2sc(NC(=O)[C@H]3C[C@@H]3F)c(C(=O)NCC3CC3)c2C1 [Example 425] | > 6.00
Cn1nc(OCC(F)(F)F)cc1Nc1nncn1[C@H]1CCc2sc(NC(=O)[C@H]3C[C@@H]3F)c(C(=O)NCC3CC3)c2C1 [Example 426, (5S)—N-(cyclopropylmethyl)-2-[[(1R,2S)-2-fluorocyclopropanecarbonyl]amino]-5-[3-[[2-methyl-5-(2,2,2-trifluoroethoxy)pyrazol-3-yl]amino]-1,2,4-triazol-4-yl]-4,5,6,7-tetrahydrobenzothiophene-3-carboxamide] | > 6.00
O=C(NCC1CC1)c1c(NC(=O)C2CC2)sc2c1C[C@@H](n1cnnc1Nc1ccc(C(F)(F)F)nc1)CC2 [Example 427, (5S)-2-(cyclopropanecarbonylamino)-N-(cyclopropylmethyl)-5-[3-[[6-(trifluoromethyl)-3-pyridyl]amino]-1,2,4-triazol-4-yl]-4,5,6,7-tetrahydrobenzothiophene-3-carboxamide] | > 6.00
COc1ccc(Nc2nncn2[C@H]2CCc3sc(NC(=O)C4CC4)c(C(=O)NCC4CC4)c3C2)cn1 [Example 428, (5S)-2-(cyclopropanecarbonylamino)-N-(cyclopropylmethyl)-5-[3-[(6-methoxy-3-pyridyl)amino]-1,2,4-triazol-4-yl]-4,5,6,7-tetrahydrobenzothiophene-3-carboxamide] | > 6.00
COc1cc(Nc2nncn2[C@H]2CCc3sc(NC(=O)C4CC4)c(C(=O)NCC4CC4)c3C2)ccn1 [Example 429, (5S)-2-(cyclopropanecarbonylamino)-N-(cyclopropylmethyl)-5-[3-[(2-methoxy-4-pyridyl)amino]-1,2,4-triazol-4-yl]-4,5,6,7-tetrahydrobenzothiophene-3-carboxamide] | > 6.00
O=C(NCC1CC1)c1c(NC(=O)C2CC2)sc2c1C[C@@H](n1cnnc1Nc1ccc(Cl)nc1)CC2 [Example 430, (5S)-5-[3-[(6-chloro-3-pyridyl)amino]-1,2,4-triazol-4-yl]-2-(cyclopropanecarbonylamino)-N-(cyclopropylmethyl)-4,5,6,7-tetrahydrobenzothiophene-3-carboxamide] | > 6.00
O=C(NCC1CC1)c1c(NC(=O)C2CC2)sc2c1C[C@@H](n1cnnc1Nc1ccnc(Cl)c1)CC2 [Example 431, (5S)-5-[3-[(2-chloro-4-pyridyl)amino]-1,2,4-triazol-4-yl]-2-(cyclopropanecarbonylamino)-N-(cyclopropylmethyl)-4,5,6,7-tetrahydrobenzothiophene-3-carboxamide] | > 6.00
COc1ccc(Nc2nncn2[C@H]2CCc3sc(NC(=O)C4CC4)c(C(=O)NCC4CC4)c3C2)c(C)n1 [Example 432, (5S)-2-(cyclopropanecarbonylamino)-N-(cyclopropylmethyl)-5-[3-[(6-methoxy-2-methyl-3-pyridyl)amino]-1,2,4-triazol-4-yl]-4,5,6,7-tetrahydrobenzothiophene-3-carboxamide] | > 6.00
O=C(NCC1CC1)c1c(NC(=O)C2CC2)sc2c1C[C@@H](Nc1nc3cccnc3s1)CC2 [Example 433] | > 6.00
Cn1nncc1Nc1nncn1[C@H]1CCc2sc(NC(=O)C3CC3)c(C(=O)NCC3CC3)c2C1 [Example 434, (5S)-2-(cyclopropanecarbonylamino)-N-(cyclopropylmethyl)-5-[3-[(3-methyltriazol-4-yl)amino]-1,2,4-triazol-4-yl]-4,5,6,7-tetrahydrobenzothiophene-3-carboxamide] | > 6.00
C[C@H]1C[C@@H]1C(=O)Nc1sc2c(c1C(=O)NC[C@@H]1C[C@@H]1F)C[C@@H](n1cnnc1Nc1cc(C(F)F)nn1C)CC2 [Example 435, (5S)-5-[3-[[5-(difluoromethyl)-2-methylpyrazol-3-yl]amino]-1,2,4-triazol-4-yl]-N-[[(1S,2S)-2-fluorocyclopropyl]methyl]-2-[[(1S,2S)-2-methylcyclopropanecarbonyl]amino]-4,5,6,7-tetrahydro-1-benzothiophene-3-carboxamide] | > 6.00
